Test results published in EP1135374B9, “BENZIMIDAZOLE COMPOUNDS THAT ARE VITRONECTIN RECEPTOR ANTAGONISTS” (SCHERING CORPORATION, priority 1998, dated 2000).

Tests used:
purified αllbβ3 receptor = purified αllbβ3 receptor (Homo sapiens, UniProt P05106+P08514); experiment: similar competitive binding assay with 125I-echistatin on αllbβ3 receptor, used for the specificity index; settings: specificity index IC50 αllbβ3/ IC50 αvβ3; for SPECIFICITY αIIbβ3 / αvβ3: Table 10; for Specificity α11bβ3 / αvβ3: Table 13; for Specificity αllbβ3 / αvβ3: Table 16
Description: To measure the relative affinity of the test compounds for αvβ3 receptors versus affinity for αllbβ3 receptors, similar competitive assays were carried out using purified αllbβ3 receptor and ^125I-echistatin (iodinated using the lactoperoxidase method). The specificity index, which is a measure of the relative binding affinity for αvβ3, versus αllbβ3, may be determined by dividing the IC50 value for αllbβ3 by the IC50 value for αvβ3.

[1] = target: T1, αvβ3 receptor (purified from human placenta) (Homo sapiens, UniProt P05106+P06756); experiment: competition radioligand binding assay, 125I-echistatin to αvβ3 receptor; settings: αvβ3, inhibition of specific 125I-echistatin binding
T1 construct: αvβ3 receptor (purified from human placenta); from tissue; host or cells: human placenta
Description: The following assay procedure, which is a competition radioligand binding assay, was carried out to determine the activity of the foregoing compounds as αvβ3 antagonists. The competitive assay procedure described in Kumar, et. al., "Biochemical Characterization Of The Binding Of Echistatin To Integrin αvβ3 Receptor", Journal Of Pharmacology And Experimental Therapeutics, Vol. 283, No. 2, pp. 843-853 (1997) was employed. Thus, binding of ^125I-echistatin (radiolabeled by the chloramine-T method to a specific activity of 2000 Ci/mmol (Amersham, Chicago, Il.)) to αvβ3 receptor (purified from human placenta), both prepared as described in Kumar, et al., was competed by the compounds prepared in the foregoing examples. Purified αvβ3 receptor was coated onto Microlite-2 plates at a concentration of 50 ng/well. ^125I-echistatin was added to the wells to a final concentration of 0.05 nM in binding buffer (50 µl/well) in the presence of the competing test compound. The competing test compounds were employed at serially diluted concentrations ranging from 1 pM to 100 nM. After a 3 hour incubation at room temperature, the wells were washed, and radioactivity, reflecting binding by ^125 I-echistatin to αvβ3 receptors, was determined with Top Count (Packard). Each data point is an average of values from triplicate wells.
Specific binding of ^125I-echistatin was calculated as the difference between the amount of ^125I-echistatin bound in the absence (total binding) and the amount of ^125I-echistatin bound in the presence of a 200-fold molar excess of unlabeled echistatin (nonspecific binding). The efficacy of the test compounds for inhibiting specific binding of ^125I-echistatin to αvβ3 receptors was determined by plotting a graph of specific binding (y-axis) as a function of test compound concentration (x-axis). The concentration of test compound required to inhibit 50% of the specific binding (IC50) was determined from the plot. The IC50 may be directly converted mathematically to Ki, which is a measure of the receptor binding affinity of the compounds under the defined assay conditions.

| Structure (SMILES) | SPECIFICITY αIIbβ3 / αvβ3 (purified αllbβ3 receptor) | IC50 ([1]; Table 10) [nM] | other results |
| --- | --- | --- | --- |
| O=C(N[C@@H](CNC(=O)c1ccc(CN(Cc2nc3ccccc3[nH]2)C(=O)N2CCOCC2)cc1)C(=O)O)OCc1ccccc1 [Example 5-42] | 39 | 1.8 |  |
| O=C(O)CC(NC(=O)c1ccc(CN(Cc2nc3ccccc3[nH]2)C(=O)CCC2CCCC2)cc1)c1ccccc1 (stereo not drawn) [Example 5-69] |  |  | Specificity α11bβ3 / αvβ3 (purified αllbβ3 receptor): 0.4; IC50 ([1]; Table 13): 10500 nM |
| O=C(NC(CNC(=O)c1ccc(CN(CCc2nc3ccccc3[nH]2)C(=O)CCC2CCCC2)cc1)C(=O)O)OCc1ccccc1 (stereo not drawn) [Example 5-74] |  |  | Specificity αIIβ3 / αvβ3 (purified αllbβ3 receptor; Table 14): 0.6; IC50 ([1]; Table 14): 238 nM |
| O=C(N[C@@H](CNC(=O)c1ccc(CN(Cc2nc3ccccc3[nH]2)C(=O)C2CCCCC2)cc1)C(=O)O)OCc1ccccc1 [Example 5-15] | 95 | 4.3 |  |
| O=C(N[C@@H](CNC(=O)c1ccc(CN(Cc2nc3ccccc3[nH]2)C(=O)CCC2CCCC2)cc1)C(=O)O)OCc1ccccc1 [Example 5-14] | 117 | 5.8 |  |
| CN(C)CC(=O)N(Cc1ccc(C(=O)NC[C@H](NC(=O)OCc2ccccc2)C(=O)O)cc1)Cc1nc2ccccc2[nH]1 [Example 5-24] | 14 | 5.3 |  |
| CCOc1ccc(NC(=O)N(Cc2ccc(C(=O)NC[C@H](NC(=O)OCc3ccccc3)C(=O)O)cc2)Cc2nc3ccccc3[nH]2)cc1 [Example 5-32] | 151 | 6.5 |  |
| O=C(N[C@@H](CNC(=O)c1ccc(CN(Cc2nc3ccccc3[nH]2)C(=O)Nc2ccccc2)cc1)C(=O)O)OCc1ccccc1 [Example 5-27] | 481 | 1.56 |  |
| CCCCOC(=O)N[C@@H](CNC(=O)c1ccc(CN(Cc2nc3ccccc3[nH]2)C(=O)NCC(=O)OCC)cc1)C(=O)O [Example 5-86, N^3-[4-[(benzimidazol-2-yl)methyl][[(ethoxycarbonylmethyl)amino]-carbonyl]aminomethylbenzoyl]-N^2-(n-butoxycarbonyl)-L-2,3-diaminopropionic acid] |  |  | Specificity αllbβ3 / αvβ3 (purified αllbβ3 receptor): 793; IC50 ([1]; Table 16): 3.3 nM |
| CC(C)NC(=O)N(Cc1ccc(C(=O)NC[C@H](NC(=O)OCc2ccccc2)C(=O)O)cc1)Cc1nc2cc(Cl)ccc2[nH]1 [Example 5-95] |  |  | Specificity αllbβ3 / αvβ3 (purified αllbβ3 receptor): 775; IC50 ([1]; Table 16): 1.7 nM |
| O=C(N[C@@H](CNC(=O)c1ccc(CN(Cc2nc3ccccc3[nH]2)C(=O)C2CC2c2ccccc2)cc1)C(=O)O)OCc1ccccc1 (stereo partly drawn) [Example 5-22] | 26 | 6.4 |  |
| CCCCOC(=O)N[C@@H](CNC(=O)c1ccc(CN(Cc2nc3ccccc3[nH]2)C(=O)NCC(=O)O)cc1)C(=O)O [Example 5-97, N^3-[4-[(Benzimidazol-2-yl)methyl][[(carboxymethyl)amino]carbonyl]aminomethylbenzoyl]-N^2-(n-butoxycarbonyl)-L-2,3-diaminopropionic acid] |  |  | Specificity αllbβ3 / αvβ3 (purified αllbβ3 receptor): 2600; IC50 ([1]; Table 16): 4.3 nM |
| CC(C)(C)NC(=O)N(Cc1ccc(C(=O)NC[C@H](NC(=O)OCc2ccccc2)C(=O)O)cc1)Cc1nc2ccccc2[nH]1 [Example 5-34] | 421 | 2.3 |  |
| O=C(NC[C@H](NS(=O)(=O)c1ccccc1)C(=O)O)c1ccc(CN(Cc2nc3ccccc3[nH]2)C(=O)NC2CCCCC2)cc1 [Example 5-81] |  |  | Specificity αllbβ3 / αvβ3 (purified αllbβ3 receptor): 8.0; IC50 ([1]; Table 16): 8.2 nM |
| O=C(N[C@@H](CNC(=O)c1ccc(CN(Cc2nc3cc(Cl)ccc3[nH]2)C(=O)NC2CCCCC2)cc1)C(=O)O)OCc1ccccc1 [Example 5-94] |  |  | Specificity αllbβ3 / αvβ3 (purified αllbβ3 receptor): 399; IC50 ([1]; Table 16): 3.8 nM |
| COc1ccc(OC(=O)N(Cc2ccc(C(=O)NC[C@H](NC(=O)OCc3ccccc3)C(=O)O)cc2)Cc2nc3ccccc3[nH]2)cc1 [Example 5-21] | 41 | 4.4 |  |
| CC(=O)N(Cc1ccc(C(=O)NC(CC(=O)O)c2ccccc2)cc1)Cc1nc2ccccc2[nH]1 (stereo not drawn) [Example 5-66] |  |  | Specificity α11bβ3 / αvβ3 (purified αllbβ3 receptor): 0.4; IC50 ([1]; Table 13): 9470 nM |
| CCOC(=O)[C@@H](NC(=O)N(Cc1ccc(C(=O)NC[C@H](NC(=O)OCc2ccccc2)C(=O)O)cc1)Cc1nc2ccccc2[nH]1)C(C)C [Example 5-51] | 1210 | 1.1 |  |
